Patent EP4644375A1, “SUBSTITUTED HYDROQUINOLINES FOR THE TREATMENT OF GLIOBLASTOMA MULTIFORME” (Molius Saglik Teknolojileri Anonim Sirketi, priority 2024, dated 2025)

Experiments:
[1] = test system: U138-MG human glioma cell; test: Cell proliferation analysis (MTT); assay type: cell-based; details: MTT; for inhibition at 10 µM / activity at 10 µM: Homo sapiens, 48 h
Procedure: (§1) U87-MG and U138-MG human glioma cell, were incubated with 10% fetal bovine serum (FBS) (Gibco, 10500-064), 1% L-glutamine (Gibco, 25030-024), in a humidified incubator with 5% CO2 at 37 °C. The cells were contained in DMEM High Glucose (Gibco, 41966-029) supplemented with 1% penicillin-streptomycin (P/S) (Gibco 15140-122) solution. The cytotoxic effects of the target compounds on U87-MG and U138-MG cell lines were assessed using the MTT (Thiazolyl Blue Tetrazolium Bromide) method. 7×10^3 cells were seeded into a 96-well plate in 100 µl DMEM High Glucose 10% FBS and 1% P/S. 24 hours after cell incubation, each target compound was added at a dose of 10 µM and the drug treatment was carried out for two days. After the incubation period, 10 µL of MTT solution was added to each well (5 mg/ml in PBS). After 2 hours, MTT solutions were removed from the wells. Then, 100 µl DMSO was added, and mixed to dissolve the formazan crystals. Cell proliferation was analysed by measuring the absorbance of dissolved formazan at a wavelength of 570 nm.
(§2) IC50 values were determined using the same method as above wherein the cells were treated with the target compounds at different doses.

U87-MG human glioma cell = test: Cell proliferation analysis (MTT); assay type: cell-based; details: MTT; for inhibition at 10 µM / activity at 10 µM: Homo sapiens, U-87 MG, 48 h
Procedure: as §1, §2

Row | Compound | inhibition at 10 µM ([1]; 10 µM, two days) | inhibition at 10 µM (U87-MG human glioma cell; 10 µM, two days) | activity at 10 µM ([1]; 10 µM, two days) | activity at 10 µM (U87-MG human glioma cell; 10 µM, two days) | further results
1 | 2-oxo-1,2,3,4-tetrahydroquinolin-6-yl dimethylcarbamate [TR-G005] |  |  |  |  | Cell Proliferation (%) ([1]; 10 µM, two days): 77%; Inhibition (%) ([1]; 10 µM, two days): 23%; Cell Proliferation (%) (U87-MG human glioma cell; 10 µM, two days): 77%; Inhibition (%) (U87-MG human glioma cell; 10 µM, two days): 23%
2 | 2-oxo-1,2,3,4-tetrahydroquinolin-6-yl diphenylcarbamate [TR-G020] |  |  |  |  | Cell Proliferation (%) ([1]; 10 µM, two days): 80%; Inhibition (%) ([1]; 10 µM, two days): 20%; Cell Proliferation (%) (U87-MG human glioma cell; 10 µM, two days): 72%; Inhibition (%) (U87-MG human glioma cell; 10 µM, two days): 29%
3 | O=C1CCc2cc(OCCCCc3nnnn3C3CCCCC3)ccc2N1 [Cilostazol, reference compound] |  |  |  |  | Inhibition (%) ([1]; reference drugs): 12%; Proliferation (%) ([1]; reference drugs): 88%; Inhibition (%) (U87-MG human glioma cell; reference drugs): 22%; Proliferation (%) (U87-MG human glioma cell; reference drugs): 78%
4 | O=C1CCc2cc(OCCOCc3ccccc3)ccc2N1 [TR-G001, 6-(2-(benzyloxy)ethoxy)-3,4-dihydroquinolin-2(1H)-one] | 12% | 22% |  |  | Cell Proliferation (%) ([1]; 10 µM, two days): 88%; Cell Proliferation (%) (U87-MG human glioma cell; 10 µM, two days): 78%
5 | CC(C)C/C=N/NC(=O)COc1ccc2c(c1)CCC(=O)N2 [TR-G003, (E)-N'-(3-methylbutylidene)-2-((2-oxo-1,2,3,4-tetrahydroquinolin-6-yl)oxy)acetohydrazide] | 16% | 21% | 84% | 79% | 
6 | O=C1CCc2cc(OCC(=O)Oc3ccccc3)ccc2N1 [TR-G004, phenyl 2-((2-oxo-1,2,3,4-tetrahydroquinolin-6-yl)oxy)acetate] | 12% | 27% | 88% | 73% | 
7 | O=C1CCc2cc(OC(=O)Cc3ccccc3)ccc2N1 [TR-G007, 2-oxo-1,2,3,4-tetrahydroquinolin-6-yl 2-phenylacetate] | 18% | 9% | 82% | 91% | 
8 | COc1ccc(C(=O)Oc2ccc3c(c2)CCC(=O)N3)cc1OC [TR-G008, 2-oxo-1,2,3,4-tetrahydroquinolin-6-yl 3,4-dimethoxybenzoate] | 35% | 37% | 65% | 63% | 
9 | COc1ccc(C(=O)Oc2ccc3c(c2)CCC(=O)N3)c(OC)c1 [TR-G009, 2-oxo-1,2,3,4-tetrahydroquinolin-6-yl 2,4-dimethoxybenzoate] | 13% | 28% | 87% | 72% | 
10 | O=C1CCc2cc(OCC3CC3)ccc2N1 [TR-G010, 6-(cyclopropylmethoxy)-3,4-dihydroquinolin-2(1H)-one] | 26% | 26% | 74% | 74% | 
11 | O=C1CCc2cc(OC(=O)c3cccc4ccccc34)ccc2N1 [TR-G011, 2-oxo-1,2,3,4-tetrahydroquinolin-6-yl 1-naphthoate] | 40% | 24% | 60% | 76% | 
12 | CCOC(=O)COc1ccc2c(c1)CCC(=O)N2 [TR-G012, ethyl 2-((2-oxo-1,2,3,4-tetrahydroquinolin-6-yl)oxy)acetate] | 15% | 29% | 85% | 71% | 
13 | O=C1CCc2cc(OCCCCOC(=O)c3ccccc3)ccc2N1 [TR-G013, 4-((2-oxo-1,2,3,4-tetrahydroquinolin-6-yl)oxy)butyl benzoate] | 22% | 29% | 78% | 71% | 
14 | O=C(OCCCCOc1ccc2c(c1)CCC(=O)N2CCCCOC(=O)c1ccccc1)c1ccccc1 [TR-G013A, 4-(6-(4-(benzoyloxy)butoxy)-2-oxo-3,4-dihydroquinolin-1(2H)-yl)butyl benzoate] | 47% | 54% | 53% | 46% | 
15 | C=CCOc1ccc2c(c1)CCC(=O)N2CC=C [TR-G014A, 1-allyl-6-(allyloxy)-3,4-dihydroquinolin-2(1H)-one] | 32% | 19% | 68% | 82% | 
16 | O=C1CCc2cc(OC(=O)CCl)ccc2N1 [TR-G016, 2-oxo-1,2,3,4-tetrahydroquinolin-6-yl 2-chloroacetate] | 5% | 22% | 95% | 78% | 

Row | Compound | inhibition at 10 µM ([1]; 10 µM, two days) | inhibition at 10 µM (U87-MG human glioma cell; 10 µM, two days) | activity at 10 µM ([1]; 10 µM, two days) | activity at 10 µM (U87-MG human glioma cell; 10 µM, two days) | further results
17 | O=C1CCc2cc(OCCBr)ccc2N1 [TR-G017, 6-(2-bromoethoxy)-3,4-dihydroquinolin-2(1H)-one] | 18% | 6% | 82% | 94% | 
18 | NNC(=O)COc1ccc2c(c1)CCC(=O)N2 [TR-G019, 2-((2-oxo-1,2,3,4-tetrahydroquinolin-6-yl)oxy)acetohydrazide] | 25% | 25% | 75% | 75% | 
19 | O=C(COc1ccc2c(c1)CCC(=O)N2)NN=Cc1ccc(Cl)cc1 [TR-G021, N'-(4-chlorobenzylidene)-2-((2-oxo-1,2,3,4-tetrahydroquinolin-6-yl)oxy)acetohydrazide] | 40% | 36% | 60% | 65% | 
20 | COc1ccc(C=NNC(=O)COc2ccc3c(c2)CCC(=O)N3)c(OC)c1 [TR-G022, N'-(2,4-dimethoxybenzylidene)-2-((2-oxo-1,2,3,4-tetrahydroquinolin-6-yl)oxy)acetohydrazide] | 25% | 2% | 75% | 98% | 
21 | O=C1CCc2cc(OC(=O)CN3CCN(c4ncccn4)CC3)ccc2N1 [TR-G023, 2-oxo-1,2,3,4-tetrahydroquinolin-6-yl 2-(4-(pyrimidin-2-yl)piperazin-1-yl)acetate] | 1% | 17% | 99% | 83% | 
22 | O=C(COc1ccc2c(c1)CCC(=O)N2)N/N=C/c1ccco1 [TR-G025, (E)-N'-(furan-2-ylmethylene)-2-((2-oxo-1,2,3,4-tetrahydroquinolin-6-yl)oxy)acetohydrazide] | 10% | 25% | 90% | 75% | 
23 | COc1ccc(/C=N/NC(=O)COc2ccc3c(c2)CCC(=O)N3)cc1 [TR-G026, (E)-N'-(4-methoxybenzylidene)-2-((2-oxo-1,2,3,4-tetrahydroquinolin-6-yl)oxy)acetohydrazide] | 10% | 8% | 90% | 92% | 
24 | Cc1[nH]c2ccccc2c1/C=N/NC(=O)COc1ccc2c(c1)CCC(=O)N2 [TR-G027, (E)-N'-((2-methyl-1H-indol-3-yl)methylene)-2-((2-oxo-1,2,3,4-tetrahydroquinolin-6-yl)oxy)acetohydrazide] | 46% | 34% | 54% | 66% | 
25 | CCCc1ccc(/C=N/NC(=O)COc2ccc3c(c2)CCC(=O)N3)cc1 [TR-G028, (E)-2-((2-oxo-1,2,3,4-tetrahydroquinolin-6-yl)oxy)-N'-(4-propylbenzylidene)acetohydrazide] | -6% | 36% | 106% | 64% | 
26 | O=C(COc1ccc2c(c1)CCC(=O)N2)N/N=C/C1CCCCC1 [TR-G029, (E)-N'-(cyclohexylmethylene)-2-((2-oxo-1,2,3,4-tetrahydroquinolin-6-yl)oxy)acetohydrazide] | 32% | 18% | 68% | 82% | 
27 | CC(C)(C)c1ccc(COc2ccc3c(c2)CCC(=O)N3)cc1 [TR-G030, 6-((4-(tert-butyl)benzyl)oxy)-3,4-dihydroquinolin-2(1H)-one] | 38% | 47% | 63% | 53% | 
28 | O=C1CCc2cc(OCCCCCCOC3CCCCO3)ccc2N1 (stereo not shown) [TR-G031, 6-((6-((tetrahydro-2H-pyran-2-yl)oxy)hexyl)oxy)-3,4-dihydroquinolin-2(1H)-one] | 20% | 28% | 80% | 72% | 
29 | CCOC(=O)Cn1cc(COc2ccc3c(c2)CCC(=O)N3)nn1 [TR-G033, Ethyl 2-(4-(((2-oxo-1,2,3,4-tetrahydroquinolin-6-yl)oxy)methyl)-1H-1,2,3-triazol-1-yl)acetate] | 29% | 19% | 71% | 82% | 
30 | O=C(COc1ccc2c(c1)CCC(=O)N2)N/N=C/c1ccccc1 [TR-G035, (E)-N'-benzylidene-2-((2-oxo-1,2,3,4-tetrahydroquinolin-6-yl)oxy)acetohydrazide] | 26% | 14% | 74% | 86% | 
31 | O=C1CCc2cc(OC(=O)c3cc(C(F)(F)F)ccc3F)ccc2N1 [TR-G036, 2-oxo-1,2,3,4-tetrahydroquinolin-6-yl 2fluoro-5-(trifluoromethyl)benzoate] | 19% | 32% | 81% | 68% | 
